Laboratory results reported in the supplement of paper PMC10307832.

compound: CC1(C)CCC(CN2CCN(c3ccc(C(=O)NS(=O)(=O)c4ccc(NCC5CCOCC5)c([N+](=O)[O-])c4)c(Oc4cnc5[nH]ccc5c4)c3)CC2)=C(c2ccc(Cl)cc2)C1 [Venetoclax] + Nc1nc2[nH]cc(CCc3ccc(C(=O)N[C@@H](CCC(=O)O)C(=O)O)cc3)c2c(=O)[nH]1 [Pemetrexed] (partner 0.2 µM); assay: relative viability (nuclei count vs DMSO), 5 days (fraction); higher = more cells survive; settings: first compound 1 µM
Procedure, shortened: (§1)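 Dosing by pin tool came one day after lung cancer cell lines were seeded in 1536-well plates, using either one drug or a fixed anchor-drug dose plus five library-drug doses (not always all listed) in √10 steps. After 5 days, nuclei were counted on 4× images. Relative viability is treated-well nuclei count divided by vehicle-well nuclei count, and values are medians of duplicate plates.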

Row | Cell Line | relative viability
1 | NCI-H596 | 0.486
2 | NCI-H3122 | 0.198
3 | 201T | 0.366
4 | NCI-H1993 | 0.668
5 | HOP-62 | 0.355
6 | NCI-H1355 | 1.01
7 | NCI-H2405 | 0.963
8 | NCI-H1437 | 0.308
9 | NCI-H661 | 0.901
10 | CAL-12T | 1.19
11 | H3255 | 0.562
12 | NCI-H2347 | 0.444
13 | NCI-H1975 | 0.281
14 | NCI-H441 | 0.244
15 | NCI-H1650 | 0.356
16 | NCI-H1915 | 0.476
17 | NCI-H2087 | 0.668
18 | HCC-366 | 0.197
19 | RERF-LC-KJ | 0.506
20 | EKVX | 0.35
21 | LCLC-103H | 0.447
22 | NCI-H1651 | 0.57
23 | NCI-H2009 | 0.961
24 | SW 1573 | 0.846
25 | SK-LU-1 | 0.867

compound: Cn1cnc2c(F)c(Nc3ccc(Br)cc3Cl)c(C(=O)NOCCO)cc21 [Selumetinib] + CC(C)C[C@H](NC(=O)[C@H](Cc1ccccc1)NC(=O)c1cnccn1)B(O)O [Bortezomib] (partner 0.002 µM); assay: as above; settings: first compound 0.02 µM
Procedure, shortened: as §1

Row | Cell Line | relative viability
26 | BEN | 0.779
27 | HCC-15 | 0.842
28 | HCC-827 | 1.22
29 | NCI-H460 | 0.962
30 | LU99A | 1.35
31 | NCI-H2085 | 1
32 | A-427 | 1.06
33 | NCI-H520 | 0.635
34 | NCI-H838 | 0.695
35 | NCI-H596 | 0.92
36 | NCI-H3122 | 0.896
37 | 201T | 1.11
38 | NCI-H1993 | 0.861
39 | HOP-62 | 1.06
40 | NCI-H1355 | 1.18
41 | NCI-H2405 | 0.971
42 | NCI-H1437 | 0.486

Row | Cell Line | relative viability
43 | NCI-H661 | 0.751
44 | CAL-12T | 0.768
45 | H3255 | 0.82
46 | NCI-H2347 | 0.755
47 | NCI-H1975 | 0.324
48 | NCI-H441 | 0.658
49 | NCI-H1650 | 0.199
50 | NCI-H1915 | 1.07
51 | NCI-H2087 | 0.626
52 | HCC-366 | 1.07
53 | RERF-LC-KJ | 1.05
54 | EKVX | 0.858
55 | LCLC-103H | 1.01
56 | NCI-H1651 | 1.08
57 | NCI-H2009 | 0.788
58 | SW 1573 | 1.01
59 | SK-LU-1 | 1.25

same assay, conditions: first compound 0.06325 µM

Row | Cell Line | relative viability
60 | BEN | 0.854
61 | HCC-15 | 0.677
62 | HCC-827 | 1.03
63 | NCI-H460 | 0.684
64 | LU99A | 1.05
65 | NCI-H2085 | 0.947
66 | A-427 | 0.978
67 | NCI-H520 | 0.47
68 | NCI-H838 | 0.59
69 | NCI-H596 | 0.93
70 | NCI-H3122 | 0.811
71 | 201T | 1
72 | NCI-H1993 | 0.897
